Experimental data as given in patent US12186397B2, “Adhesive cell tissue gels” (National Cheng Kung University, priority 2011, dated 2025).
“Also recorded” adds a separate entry of the source. Where two headings read alike, the source gives them in different places.

What was measured:
[1] = test system: Fibroblasts; experiment: Viability of cells in contact with crosslinking agents or gels with quenching agents (Example 2); assay type: cell-based
Protocol: Gels containing various ratios of reactive groups in crosslinking agents to those in the matrix molecules with quenching agents were prepared as indicated in Table 2. Normality was used to indicate the number of reactive groups in the crosslinking agents, the number of functional groups in the matrix molecules, or the number of moieties in the quenching agents. Live cells were seeded and added to the gels, and cell viability was observed. Crosslinking agents were divided into two groups: highly toxic and less toxic. Glutaraldehyde was one of the highly toxic crosslinking agents and epoxide and genipin were the less toxic crosslinking agents. The quenching agents tested were poly-L-lysine and γ-polyglutamic acid.
The above results were summarized from various sets of experiments. Specifically, final concentrations of 0.1 mN, 0.5 mN, 1 mN, and 5 mN of glutaraldehyde were tested alone or added to a gelatin or collagen solution in the presence of poly-L-Lysine as a quenching reagent.

[2] = test system: NIH3T3 fibroblast cells; experiment: Toxicity of collagen gels with crosslinking agents (Example 3); assay type: cell-based; conditions: for relative toxicity among the three crosslinking agents: collagen gels
Protocol: Gels were prepared from collagen with glutaraldehyde, EX-810, and genipin at 5 mN, 1 mN, 0.5 mN, and 0.1 mN, respectively. Out of the three crosslinking agents, glutaraldehyde was the most toxic and genipin was the least toxic. Normality was used to indicate the numbers of reactive groups in the crosslinking agents. NIH3T3 fibroblast cells were cultured with the gels and a culture medium in a 96-well plate at 4×10^4 cells per well. Cell viability was observed.

[3] = test system: Fibroblasts
Protocol: The cytotoxic effect of the adhesive was evaluated by applying 10 μL of the adhesive to the center of a well of a 24-well plate. Fibroblasts (2.0×10^4 cell/well) were seeded and incubated at 37° C. with 5% CO2 for 38 hours. The number of viable cells was quantified by a hemacytometer.

Compound	fibroblast viability in gel ([1]; 5 mN crosslinker and total 5 mN collagen and poly-L-lysine)	Viability of cells ([1]; Normality ratio 1:1 of reactive groups in crosslinking agent to functional groups in matrix molecules and quenching agents)	Viability of cells (alive) ([1]; Normality ratio 1:5) [%]	Viability of cells (alive) ([1]; Normality ratio 1:10) [%]	Viability of cells (alive) ([1]; Normality ratio 1:50) [%]	Viability of cells ([1]; Normality ratio 5:1 of reactive groups in crosslinking agent to functional groups in matrix molecules and quenching agents)	Viability of cells (alive) ([1]; crosslinking agent only, 1 mN) [%]	Viability of cells ([1]; crosslinking agent only, ≥5 mN)	cell proliferation ([2]; collagen gel, 1 mN crosslinker)	cells survived ([2]; collagen gel, 1 mN crosslinker)	cell viability ([2]; collagen gel, 5 mN crosslinker)	relative toxicity among the three crosslinking agents [2]	cytotoxicity of the adhesive [3]	Viability of cells (alive) [1] [%]	cell viability in gel [1]	fibroblast viability in gel [1]	Viability of cells (alive) ([1]; 24 h, 0.1 mN) [%]	cells survived ([1]; 24 h, 0.1 mN)	cells adhered to the gel ([2]; collagen gel, 0.1 mN crosslinker) [%]	cell viability ([2]; collagen gel, 0.5 mN crosslinker, 24 hours of culturing)
COC(=O)C1=CO[C@@H](O)[C@@H]2C(CO)=CC[C@H]12 [genipin]	some fibroblasts died; also recorded: most fibroblasts survived in the distal area	Some	100	100	100	All die	≥80	All die	no cell proliferation	over 80%	all cells died	least toxic	increased with elevated concentration of genipin	–	–	–	–	–	–	–
O=CCCCC=O [glutaraldehyde]	–	–	–	–	–	–	–	–	–	–	–	most toxic	–	100	most adjacent cells died	survived and proliferated like the control groups	~20	about 20%	20	most cells died
